Laboratory results: EP4603105A1, “PHARMACEUTICAL COMPOSITION CONTAINING CYCLIC COMPOUND HAVING SELECTIVE KRAS INHIBITORY EFFECT AGAINST HRAS AND NRAS” (CHUGAI SEIYAKU KABUSHIKI KAISHA, priority 2022, dated 2024)
Where a SMILES comes first, the peptide text is derived from it. Bridges are numbered along the chain shown (N, C = ends). [ ]: non-standard residue; d: D form. The star is where a group is joined. hPhe(3-Cl-4-CF3) = N[C@@H](CCc1ccc(C(F)(F)F)c(Cl)c1)C(=O)O; NPrPhe(4-CF3) = CCCN[C@@H](Cc1ccc(C(F)(F)F)cc1)C(=O)O; NMeGly(cPent) = CN[C@H](C(=O)O)C1CCCC1; Hyp = O=C(O)[C@@H]1C[C@@H](O)CN1; NMeD = CN[C@@H](CC(=O)O)C(=O)O; NMeL = CN[C@@H](CC(C)C)C(=O)O; Morpholide = C1CN(*)CCO1; NMeA = CN[C@@H](C)C(=O)O; Ac4c = NC1(C(=O)O)CCC1; Sar = CNCC(=O)O

Legend:
[1] = target: GDP-bound NRAS wild-type protein (Homo sapiens, UniProt P01111); assay: Binding to NRAS by surface plasmon resonance (SPR), KD and KD ratio to KRAS
How it was run: (§1)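 Compound binding is evaluated by SPR single-cycle kinetics, with concentrations added intermittently from low to high for 75 s each. Target surfaces carry GDP-loaded biotinylated Avi-RAS at about 100–300 RU, regenerated after each cycle; temperature 30°C. A 1:1 binding model gives KD.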

HRAS wild-type protein = HRAS wild-type protein (Homo sapiens, UniProt P01112); assay: Binding to HRAS by surface plasmon resonance (SPR), KD and KD ratio to KRAS
How it was run: as §1

[2] = tested on: human lung cancer strain NCI-H441; format: cell-based
How it was run: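 Proliferation was scored by […] measured after the reagent was added to cultures kept at 37°C in 5% carbon dioxide.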

[3] = ratio of the KD value with respect to GDP-bound NRAS wild-type protein to the KD value with respect to KRAS
[4] = ratio of the KD value with respect to HRAS wild-type protein to the KD value with respect to KRAS
[5] = ratio of KD for GDP-bound NRAS wild-type protein to KD for KRAS
[6] = ratio of KD for HRAS wild-type protein to KD for KRAS
[7] = ratio of KD value for GDP-bound NRAS wild-type protein to KD value for KRAS (SPR)
[8] = ratio of KD value for HRAS wild-type protein to KD value for KRAS (SPR)

Sequence of HRAS wild-type protein (P01112 whole entry): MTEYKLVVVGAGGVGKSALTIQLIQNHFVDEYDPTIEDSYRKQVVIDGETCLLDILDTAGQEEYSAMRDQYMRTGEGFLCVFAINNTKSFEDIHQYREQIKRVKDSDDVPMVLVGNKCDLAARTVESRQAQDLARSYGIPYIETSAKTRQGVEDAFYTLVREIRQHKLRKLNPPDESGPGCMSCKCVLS
Sequence of GDP-bound NRAS wild-type protein (P01111 whole entry): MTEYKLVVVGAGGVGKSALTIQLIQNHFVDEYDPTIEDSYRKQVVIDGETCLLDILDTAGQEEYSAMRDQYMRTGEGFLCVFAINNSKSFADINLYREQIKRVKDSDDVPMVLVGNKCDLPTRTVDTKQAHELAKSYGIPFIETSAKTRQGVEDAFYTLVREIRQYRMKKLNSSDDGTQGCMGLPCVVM

## CCCN1C(=O)CN(C)C(=O)CN(C)C(=O)[C@H]([C@@H](C)CC)NC(=O)[C@H](CC(C)C)N(C)C(=O)C[C@@H](C(=O)N2CCOCC2)N(C)C(=O)[C@H](C2CCCC2)N(C)C(=O)C2(CCC2)NC(=O)[C@H](C)N(C)C(=O)[C@H](CCc2ccc(C(F)(F)F)c(Cl)c2)NC(=O)CN(C)C(=O)[C@@H]1Cc1ccc(C(F)(F)F)cc1 [PP1916] ([NMeL]I[Sar][Sar][NPrPhe(4-CF3)][Sar][hPhe(3-Cl-4-CF3)][NMeA][Ac4c][NMeGly(cPent)][NMeD]-Morpholide; lactam N-11)
[1]; [3]
  NRAS /KRAS: B (a compound having 3 or more and less than 10 is denoted as B)
HRAS wild-type protein; [4]
  HRAS /KRAS: C (A compound having a KD ratio of 0.1 or more and less than 3 is denoted as C)
[2]
  IC50: 16.8 nM

## CCCN1C(=O)CN(C)C(=O)CN(C)C(=O)[C@H]([C@@H](C)CC)NC(=O)[C@H](CC(C)C)N(C)C(=O)C[C@@H](C(=O)N(C)C)NC(=O)[C@H](C2CCCC2)N(C)C(=O)C2(CCC2)NC(=O)[C@@H]2C[C@@H](OCC)CN2C(=O)[C@H](CCc2ccc(C(F)(F)F)c(Cl)c2)NC(=O)CN(C)C(=O)[C@@H]1Cc1ccc(C(F)(F)F)cc1 [PP0360] ([NMeL]I[Sar][Sar][NPrPhe(4-CF3)][Sar][hPhe(3-Cl-4-CF3)][Hyp](Et)[Ac4c][NMeGly(cPent)]D-NMe2; lactam N-11)
[1]; [5]
  NRAS /KRAS: B (a compound having 3 or more and less than 10 is denoted as B)
HRAS wild-type protein; [6]
  HRAS /KRAS: C (A compound having a KD ratio of 0.1 or more and less than 3 is denoted as C)
[2]
  IC50: 18 nM

## CCC[C@H]1C(=O)N[C@@H](C2CCCC2)C(=O)N(C)CC(=O)N(C)[C@H]2C/C=C\CCN(C2=O)[C@@H](Cc2ccc(C)cc2)C(=O)N(C)CC(=O)N[C@@H](CCc2cc(F)c(C(F)(F)F)c(F)c2)C(=O)N2CC3(CC3)C[C@H]2C(=O)NC2(CC(C)(C)C2)C(=O)N(C)[C@@H](C2CCCC2)C(=O)N(C)[C@H](C(=O)N(C)C)CC(=O)N1C [PP2990]
[1]; [5]
  NRAS /KRAS: A (a compound having 10 or more and less than 20 is denoted as A)
HRAS wild-type protein; [6]
  HRAS /KRAS: A (a compound having 10 or more and less than 20 is denoted as A)
[2]
  IC50: 8.9 nM

## CCO[C@@H]1C[C@H]2C(=O)NC3(CCC3)C(=O)N(C)[C@@H](C3CCCC3)C(=O)N(C)[C@H](C(=O)N3CCOCC3)CC(=O)N(C)[C@@H](COC)C(=O)N[C@@H]([C@@H](C)CC)C(=O)N3CC[C@H]3C(=O)N(C)[C@H]3CCCCCN(C3=O)[C@@H](Cc3ccc(C(F)(F)F)cc3)C(=O)N(C)CC(=O)N[C@@H](CCc3cc(F)c(C(F)(F)F)c(F)c3)C(=O)N2C1 [PP0863]
[1]; [5]
  NRAS /KRAS: B (a compound having 3 or more and less than 10 is denoted as B)
HRAS wild-type protein; [6]
  HRAS /KRAS: B (a compound having 3 or more and less than 10 is denoted as B)
[2]
  IC50: 228 nM

## CCO[C@@H]1C[C@H]2C(=O)NC3(CCC3)C(=O)N(C)[C@@H](C3CCCC3)C(=O)N(C)[C@H](CC)CC(=O)N(C)[C@@H](CC)C(=O)N[C@@H]([C@@H](C)CC)C(=O)N(C)CC(=O)N(C)[C@H]3C/C=C\CCN(C3=O)[C@@H](Cc3ccc(C(F)(F)F)cc3)C(=O)N(C)CC(=O)N[C@@H](CCc3cc(F)c(C(F)(F)F)c(F)c3)C(=O)N2C1 [PP1625]
[1]; [7]
  NRAS /KRAS: B (a compound having 3 or more and less than 10 is denoted as B)
HRAS wild-type protein; [8]
  HRAS /KRAS: B (a compound having 3 or more and less than 10 is denoted as B)
[2]
  IC50: 20.2 nM

## CCO[C@@H]1C[C@H]2C(=O)NC3(CC(C)(C)C3)C(=O)N(C)[C@@H](C(CC)CC)C(=O)N(C)[C@H](C(=O)N3CCCC3)CC(=O)N(C)[C@@H](C)C(=O)N[C@@H]([C@@H](C)CC)C(=O)N(C)CC(=O)N(C)[C@H]3C/C=C\CCN(C3=O)[C@@H](Cc3ccc(C)cc3)C(=O)N(C)CC(=O)N[C@@H](CCc3ccc(C(F)(F)F)c(Cl)c3)C(=O)N2C1 [PP2152]
[1]; [3]
  NRAS /KRAS: AA (a compound having 20 or more is denoted as AA)
HRAS wild-type protein; [4]
  HRAS /KRAS: A (a compound having 10 or more and less than 20 is denoted as A)
[2]
  IC50: 29.4 nM

## CCO[C@@H]1C[C@H]2C(=O)NC3(CC(C)(C)C3)C(=O)N(C)[C@@H](C3CCCC3)C(=O)N(C)[C@H](C(=O)N(C)C)CC(=O)N(C)[C@@H](CC3CCC3)C(=O)N[C@@H]([C@@H](C)CC)C(=O)N(C)CC(=O)N(C)[C@H]3C/C=C\CCN(C3=O)[C@@H](Cc3ccc(C(F)(F)F)cc3)C(=O)N(C)CC(=O)N[C@@H](CCc3cc(F)c(Cl)c(F)c3)C(=O)N2C1 [PP1762]
[1]; [7]
  NRAS /KRAS: A (a compound having 10 or more and less than 20 is denoted as A)
HRAS wild-type protein; [8]
  HRAS /KRAS: A (a compound having 10 or more and less than 20 is denoted as A)
[2]
  IC50: 8.4 nM

## CCO[C@@H]1C[C@H]2C(=O)NC3(CCC3)C(=O)N(C)[C@@H](C3CCCC3)C(=O)N(C)[C@H](C(=O)N(C)C)CC(=O)N(C)[C@@H](CC)C(=O)N[C@@H]([C@@H](C)CC)C(=O)N(C)CC(=O)N(C)[C@H]3C[C@@H](C)CCN(C3=O)[C@@H](Cc3ccc(C(F)(F)F)cc3)C(=O)N(C)CC(=O)N[C@@H](CCc3cc(F)c(C(F)(F)F)c(F)c3)C(=O)N2C1 [PP1020]
[1]; [5]
  NRAS /KRAS: C (A compound having a KD ratio of 0.1 or more and less than 3 is denoted as C)
HRAS wild-type protein; [6]
  HRAS /KRAS: B (a compound having 3 or more and less than 10 is denoted as B)
[2]
  IC50: 18 nM

## CCO[C@@H]1C[C@H]2C(=O)NC3(CCC3)C(=O)N(C)[C@@H](C3CCCC3)C(=O)N(C)[C@H](C(=O)N(C)C)CC(=O)N(C)[C@@H](CCC(F)F)C(=O)N[C@@H]([C@@H](C)CC)C(=O)N(C)CC(=O)N(C)[C@H]3C/C=C\CCN(C3=O)[C@@H](Cc3ccc(C(F)(F)F)cc3)C(=O)N(C)CC(=O)N[C@@H](CCc3cc(F)c(C(F)(F)F)c(F)c3)C(=O)N2C1 [PP1121]
[1]; [5]
  NRAS /KRAS: A (a compound having 10 or more and less than 20 is denoted as A)
HRAS wild-type protein; [6]
  HRAS /KRAS: A (a compound having 10 or more and less than 20 is denoted as A)
[2]
  IC50: 17.3 nM

## CCO[C@@H]1C[C@H]2C(=O)NC3(CCC3)C(=O)N(C)[C@@H](C3CCCC3)C(=O)N(C)[C@H](C(=O)N3CCOCC3)CC(=O)N(C)[C@@H](Cc3ccccc3F)C(=O)N[C@@H]([C@@H](C)CC)C(=O)N(C)CC(=O)N(C)[C@H]3CCCCCN(C3=O)[C@@H](Cc3ccc(C(F)(F)F)cc3)C(=O)N(C)CC(=O)N[C@@H](CCc3cc(F)c(C(F)(F)F)c(F)c3)C(=O)N2C1 [PP0926]
[1]; [5]
  NRAS /KRAS: B (a compound having 3 or more and less than 10 is denoted as B)
HRAS wild-type protein; [6]
  HRAS /KRAS: B (a compound having 3 or more and less than 10 is denoted as B)
[2]
  IC50: 113 nM

## CCCO[C@H](C)[C@@H]1NC(=O)[C@H](CC(C)C)N(C)C(=O)C[C@@H](C(=O)N(C)C)N(C)C(=O)[C@H](C2CCCC2)N(C)C(=O)C2(CC(C)(C)C2)NC(=O)[C@@H]2C[C@@H](OCC)CN2C(=O)[C@H](CCc2cc(F)c(C(F)(F)F)c(F)c2)NC(=O)CN(C)C(=O)[C@H](Cc2ccc(C(F)(F)F)cc2)N2CC/C=C\C[C@@H](C2=O)N(C)C(=O)CN(C)C1=O [PP1921]
[1]; [3]
  NRAS /KRAS: A (a compound having 10 or more and less than 20 is denoted as A)
HRAS wild-type protein; [4]
  HRAS /KRAS: A (a compound having 10 or more and less than 20 is denoted as A)
[2]
  IC50: 7.8 nM

## CC[C@H](C)[C@@H]1NC(=O)[C@H](CC2CC2)N(C)C(=O)C[C@@H](C(=O)N(C)C)N(C)C(=O)[C@H](C2CCCC2)N(C)C(=O)C2(CCC2)NC(=O)[C@@H]2CC(F)(F)CN2C(=O)[C@H](CCc2cc(F)c(C(F)(F)F)c(F)c2)NC(=O)CN(C)C(=O)[C@H](Cc2ccc(C(F)(F)F)cc2)N2CC/C=C\C[C@@H](C2=O)N(C)C(=O)CN(C)C1=O [PP1500]
[1]; [7]
  NRAS /KRAS: A (a compound having 10 or more and less than 20 is denoted as A)
HRAS wild-type protein; [8]
  HRAS /KRAS: A (a compound having 10 or more and less than 20 is denoted as A)
[2]
  IC50: 6.9 nM

## CCC[C@H]1C(=O)N[C@@H]([C@@H](C)CC)C(=O)N(C2CC2)CC(=O)N(C)[C@H]2C/C=C\CCN(C2=O)[C@@H](Cc2ccc(C)cc2)C(=O)N(C)CC(=O)N[C@@H](CCc2cc(C)c(C(F)F)c(Cl)c2)C(=O)N2C[C@H](OCC)C[C@H]2C(=O)NC2(CC(C)(C)C2)C(=O)N(C)[C@@H](C2CCCC2)C(=O)N(C)[C@H](C(=O)N(C)C)CC(=O)N1C [PP2875]
[1]; [5]
  NRAS /KRAS: A (a compound having 10 or more and less than 20 is denoted as A)
HRAS wild-type protein; [6]
  HRAS /KRAS: A (a compound having 10 or more and less than 20 is denoted as A)
[2]
  IC50: 121 nM

## C#CC[C@H]1C(=O)N[C@@H]([C@@H](C)CC)C(=O)N(C)CC(=O)N(C)[C@H]2C/C=C\CCN(C2=O)[C@@H](Cc2ccc(C(F)(F)F)cc2)C(=O)N(C)CC(=O)N[C@@H](CCc2ccc(C(F)(F)F)c(OC)c2)C(=O)N2C[C@@H](C)C[C@H]2C(=O)NC2(CC(C)(C)C2)C(=O)N(C)[C@@H](C2CCCC2)C(=O)N(C)[C@H](C(=O)N(C)CC)CC(=O)N1C [PP2055]
[1]; [3]
  NRAS /KRAS: A (a compound having 10 or more and less than 20 is denoted as A)
HRAS wild-type protein; [4]
  HRAS /KRAS: B (a compound having 3 or more and less than 10 is denoted as B)
[2]
  IC50: 16.1 nM
